Source: paper PMC4466390, “Canonical and Noncanonical Sites Determine NPT2A Binding Selectivity to NHERF1 PDZ1” (PLoS ONE, 2015)
Positions count from the first letter of the chain named. Entries after “also recorded” stand apart in the source; their conditions may differ. Where a SMILES comes first, the peptide text is derived from it. The star is where a group is joined. X1 = CN(C)c1ccc2c(-c3ccc(C(=O)*)cc3C(=O)[O-])c3ccc(=[N+](C)C)cc-3oc2c1

Assays:
NHERF1 PDZ1 (1–140) = biological target: T1, NHERF1 PDZ1 (1–140) (Homo sapiens, UniProt O14745); assay: FP saturation binding, PDZ1 (1–140); conditions: acidic pH (5.5, 6.0) compared to pH 7.4
T1 construct: The expression plasmids pET16-N1P1 encoding PDZ1 (1–140); inferred from pET16 vector and Ni-NTA purification; made in house; host or cells: E. coli BL21 (DE3)
T1 sequence (O14745 1-140): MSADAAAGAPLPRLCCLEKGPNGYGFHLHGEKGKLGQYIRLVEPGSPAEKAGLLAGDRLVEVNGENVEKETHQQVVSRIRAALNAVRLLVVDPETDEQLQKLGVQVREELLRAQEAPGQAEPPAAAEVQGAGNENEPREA

NHERF1 PDZ2 D183E = biological target: T2, NHERF1 PDZ2 D183E (Homo sapiens, UniProt O14745, D183E); assay: FP saturation binding, PDZ2 D183E; conditions: Asp183Glu PDZ2
T2 construct: pET16-N1P2 encoding PDZ2 (133–300) of NHERF1; inferred from pET16 vector and Ni-NTA purification; made in house; host or cells: E. coli BL21 (DE3)
T2 sequence (O14745 133-300 D183E): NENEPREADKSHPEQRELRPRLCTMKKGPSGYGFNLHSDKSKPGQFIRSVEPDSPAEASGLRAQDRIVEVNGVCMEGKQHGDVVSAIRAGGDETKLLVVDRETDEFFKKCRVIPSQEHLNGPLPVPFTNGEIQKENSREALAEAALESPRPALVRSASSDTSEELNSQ

NHERF1 PDZ2 N167H/D183E = biological target: T3, NHERF1 PDZ2 N167H/D183E (Homo sapiens, UniProt O14745, D183E/N167H); assay: FP saturation binding, PDZ2 N167H/D183E; conditions: Asn167His/Asp183Glu PDZ2
T3 construct: pET16-N1P2 encoding PDZ2 (133–300) of NHERF1; inferred from pET16 vector and Ni-NTA purification; made in house; host or cells: E. coli BL21 (DE3)
T3 sequence (O14745 133-300 N167H/D183E): T2 sequence (O14745 133-300 D183E) with N35H

NHERF1 PDZ1 (1–120) = biological target: T4, NHERF1 PDZ1 (1–120) (Homo sapiens, UniProt O14745); assay: ITC, PDZ1 (1–120); type: binding; conditions: 25°C
T4 construct: PDZ1 (1–120)
T4 sequence (O14745 1-120): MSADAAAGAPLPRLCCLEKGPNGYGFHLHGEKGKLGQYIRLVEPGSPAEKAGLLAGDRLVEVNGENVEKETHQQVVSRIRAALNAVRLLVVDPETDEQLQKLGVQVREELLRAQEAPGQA
Method: (§1) ITC measurements were performed with a MicroCalTM Auto-iTC200 system (GE Healthcare) at 25°C. Before measurement, samples were dialyzed overnight at 4°C in a buffer containing 10 mM Hepes (pH 7.5), 10 mM NaCl, 0.5 mM EDTA, and 0.5 mM ββ-mercaptoethanol. For determining NPT2A binding to PDZ constructs, the reaction cells were filled with 460 μl of 25 μM of the indicated PDZ protein. The ligand NPT2A (200–250 μM), was titrated into the cell in 19 injections of 2 μl each, with 150 s intervals between each injection. To remove the contribution of NPT2A dilution heat, a control experiment has been performed by titrating NPT2A into the buffer, which was then subtracted from the actual experimental data.
(§2) The ITC data were analyzed using Microcal Origin 7.0 and the manufacturer's provided VPViewer module to yield the association constant (Ka), stoichiometry (n), and the observed enthalpy change (ΔH°) for the binding reactions. Analysis of ITC data directly yielded ΔH° and Ka. The Gibbs energy calculated using the equation: ΔG°=−RTlnKa (3)
(§3) The entropy change was then obtained using the standard thermodynamic expression.

NHERF1 PDZ1 H27N (1–120) = biological target: T5, NHERF1 PDZ1 H27N (1–120) (Homo sapiens, UniProt O14745, H27N); assay: ITC, PDZ1 H27N (1–120); type: binding
T5 construct: PDZ1 H27N (1–120)
T5 sequence (O14745 1-120 H27N): T4 sequence (O14745 1-120) with H27N
Method: as §1, §2, §3

NHERF1 PDZ1 E43D (1–120) = biological target: T6, NHERF1 PDZ1 E43D (1–120) (Homo sapiens, UniProt O14745, E43D); assay: ITC, PDZ1 E43D (1–120); type: binding
T6 construct: PDZ1 E43D (1–120)
T6 sequence (O14745 1-120 E43D): T4 sequence (O14745 1-120) with E43D
Method: as §1, §2, §3

[1] = biological target: T7, NHERF1 PDZ1 H27N/E43D (1–120) (Homo sapiens, UniProt O14745, E43D/H27N); assay: ITC, PDZ1 H27N/E43D (1–120); type: binding
T7 construct: PDZ1 H27N/E43D (1–120)
T7 sequence (O14745 1-120 H27N/E43D): T4 sequence (O14745 1-120) with H27N, E43D
Method: as §1, §2, §3

NHERF1 PDZ1 and PDZ2 = conditions: PDZ1 versus PDZ2; ref [10],[14]–[16]; cited from earlier work
From the text: Na^+/H^+ Exchanger Regulatory Factor-1 (NHERF1), also known as the 50-kDa ezrin-binding protein EBP50, is a multi-domain scaffolding protein that coordinates the assembly and trafficking of transmembrane receptors and ion channels. […] PDZ domains of NHERF1 recognize the X-S/T-X-ΦCOO ^- sequence of target partners (class I PDZ-binding motifs), where X is promiscuous and Φ is a hydrophobic residue. By conve ...

With `CC(C)C[C@H](NC(=O)[C@H](CCCNC(=N)N)NC(=O)[C@@H](NC(=O)[C@H](C)NC(=O)[C@H](CC(N)=O)NC(=O)[C@H](Cc1c[nH]cn1)NC(=O)[C@H](Cc1c[nH]cn1)NC(=O)[C@H](C)NC(=O)[C@@H]1CCCN1C(=O)[C@H](CC(C)C)NC(=O)[C@H](C)NC(=O)[C@H](CC(C)C)NC(=O)[C@H](CCCNC(=N)N)NC(=O)[C@@H]1CCCN1C(=O)[C@H](CO)NC(=O)[C@@H]1CCCN1C(=O)[C@@H](NC(=O)[C@H](C)NC(=O)[C@@H]1CCCN1C(=O)[C@@H]1CCCN1C(=O)[C@H](CC(C)C)NC(=O)[C@H](CCC(=O)O)NC(=O)c1ccc(-c2c3ccc(=[N+](C)C)cc-3oc3cc(N(C)C)ccc23)c(C(=O)[O-])c1)[C@@H](C)O)[C@@H](C)O)C(=O)O` [NPT2A] (X1-ELPPATPSPRLALPAHHNATRL-OH) the “binding affinity at acidic pH” value (NHERF1 PDZ1 (1–140)) was “significantly reduced compared to pH 7.4”, the “binding affinity” value (NHERF1 PDZ2 D183E) was “micromolar affinity” and the “binding affinity” value (NHERF1 PDZ2 N167H/D183E) was “further enhancement of the binding affinity; also recorded: micromolar affinity”. The “N (stoichiometry)” value (NHERF1 PDZ1 (1–120); pH 7.5) was 0.92, the “ΔH^o” value (NHERF1 PDZ1 (1–120); pH 7.5) was -8.2 ± 0.8 kcal/mol and the “ΔG^o” value (NHERF1 PDZ1 (1–120); pH 7.5, from Eq 3) was -7.6 ± 0.8 kcal/mol. For the same molecule, the “ΔS^o” value (NHERF1 PDZ1 (1–120); pH 7.5, from Eq 4) was -2.1±0.2 cal/mol/K, the “effect of His27Asn mutation on interaction” value (NHERF1 PDZ1 H27N (1–120); FP and ITC) was “decrease the interaction with NPT2A” and the “N (stoichiometry)” value (NHERF1 PDZ1 H27N (1–120); ITC, 25°C, pH 7.5) was 0.61. For the same molecule, the “ΔH^o” value (NHERF1 PDZ1 H27N (1–120); ITC, 25°C, pH 7.5) was -7.5 ± 0.7 kcal/mol, the “ΔG^o” value (NHERF1 PDZ1 H27N (1–120); ITC, 25°C, pH 7.5, from Eq 3) was -7.2 ± 0.7 kcal/mol and the “ΔS^o” value (NHERF1 PDZ1 H27N (1–120); ITC, 25°C, pH 7.5, from Eq 4) was -0.86±0.08 cal/mol/K. The “∆∆G^o” value (NHERF1 PDZ1 H27N (1–120); ∆G^o H27N - ∆G^o WT, ITC) was “about 0.4 kcal/mol”, the “∆∆H^o” value (NHERF1 PDZ1 H27N (1–120); ∆H^o H27N - ∆H^o WT, ITC) was 0.7 kcal/mol and the “∆∆S^o” value (NHERF1 PDZ1 H27N (1–120); ∆S^o H27N - ∆S^o WT, ITC) was 1.3 cal mol^-1 K^-1. For the same molecule, the “effect of Glu43Asp mutation on interaction” value (NHERF1 PDZ1 E43D (1–120); FP and ITC) was “decrease the interaction with NPT2A”, the “∆∆H^o” value (NHERF1 PDZ1 E43D (1–120); Glu43Asp PDZ1 minus WT, ITC) was 5.2 kcal/mol and the “∆∆S^o” value (NHERF1 PDZ1 E43D (1–120); Glu43Asp PDZ1 minus WT, ITC) was 14.8 cal mol^-1 K^-1. For the same molecule, the “N (stoichiometry)” value (NHERF1 PDZ1 E43D (1–120); ITC, 25°C, pH 7.5) was 0.60, the “ΔH^o” value (NHERF1 PDZ1 E43D (1–120); ITC, 25°C, pH 7.5) was -3.0 ± 0.3 kcal/mol and the “ΔG^o” value (NHERF1 PDZ1 E43D (1–120); ITC, 25°C, pH 7.5, from Eq 3) was -6.8 ± 0.7 kcal/mol. The “ΔS^o” value (NHERF1 PDZ1 E43D (1–120); ITC, 25°C, pH 7.5, from Eq 4) was 12.7±1.0 cal/mol/K, the “∆∆G^o” value (NHERF1 PDZ1 E43D (1–120); ∆G^o E43D - ∆G^o WT, ITC) was 0.8 kcal/mol and the “N (stoichiometry)” value ([1]; 25°C, pH 7.5) was 0.60. For the same molecule, the “ΔH^o” value ([1]; 25°C, pH 7.5) was -5.8 ± 0.6 kcal/mol, the “ΔG^o” value ([1]; 25°C, pH 7.5, from Eq 3) was -6.5 ± 0.6 kcal/mol and the “ΔS^o” value ([1]; 25°C, pH 7.5, from Eq 4) was 2.3±0.3 cal/mol/K. The “∆∆G^o” value ([1]; His27 by Asn and Glu43 by Asp, versus WT) was 1.1 kcal/mol and the binding selectivity (NHERF1 PDZ1 and PDZ2) was “binds only PDZ1”.
